Results on 17 compounds are retold here after US11384078B2, “5,6-fused-bicyclic compounds and compositions for the treatment of parasitic diseases” (NOVARTIS AG, priority 2017, dated 2022).

What all share (assay type): cell-based
The subject of experiment [1] is Trypanosoma brucei brucei (Lister 427) strain. The experiment in a line: Assay for growth inhibition against Trypanosoma brucei brucei (Cell TiterGlo ATP luminescence). As to conditions: T. brucei brucei (Lister 427), read-out: T. Brucei (HAT) EC50. A digest of the protocol:
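T. b. brucei Lister 427 grown in HMI-9 with 10% FBS and 10% serum plus, seeded at 10,000 parasites/mL with 10-point threefold compound dilutions in duplicate, 37 °C for 2 days. Viability read as ATP luminescence 30 min after Cell TiterGlo; IC50 versus untreated controls.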
In general terms: Cellular ATP, detected with luciferase, serves as a proxy for viable cell number.

The test system of experiment [2] is L. donovani HU3 strain in mouse peritoneal macrophages. Briefly: Assay for inhibition of parasitemia of Leishmania donovani in mouse macrophages (SYBR Green nuclei count, high-content imaging). Conditions: L. donovani in mouse peritoneal macrophages, read-out: L. donovani in Mouse Macrophages EC50. In a few lines:
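Peritoneal macrophages from uninfected BALB/c mice were infected for 24 h with spleen-derived L. donovani HU3 (4×10^5 parasites per 2×10^4 macrophages), then cultured with compound for 5 days at 37° C, 5% CO2. After fixation and permeabilization, parasite nuclei were stained with SYBR Green and counted by high-content imaging.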

The subject of experiment [3] is Leishmania donovani axenic amastigote. Briefly: In vitro assay for growth inhibition of Leishmania donovani axenic amastigote (Cell TiterGlo luminescence). As to conditions: L. donovani axenic amastigotes in vitro, read-out: L. donovani amastigotes EC50. In a few lines: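 Axenic L. donovani amastigotes (9600/well) grown at 37 °C, 5% CO2 in supplemented RPMI 1640, pH 5.5, with compound added from DMSO. After two days, viability read by CellTiter-Glo luminescence against DMSO and control-compound wells.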

Experiment [4] concerns Trypanosoma cruzi amastigotes cultured in 3T3 fibroblast cells. The experiment in a line: Assay for growth inhibition of kinetoplastid parasite Trypanosoma cruzi (beta-galactosidase Tulahuen strain, CPRG readout). As to conditions: T. cruzi amastigotes in 3T3 fibroblast cells, read-out: Buckner infectious T. cruzi EC50. In a few lines:
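3T3 fibroblasts (1,000 cells/well) plated overnight, treated with compound in DMSO, then infected with 10,000 Lac-Z-expressing Tulahuen trypomastigotes. After 6 days, 0.6 mM CPRG with 0.6% NP-40 added for 2 h at room temperature; absorbance gives relative intracellular amastigote numbers. Benznidazole and nifurtimox serve as positive controls.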

[5] abbreviates: Leishmania donovani, Peritoneal macrophage.

Like-named read-outs stand apart in the source and are kept apart here. Some results are limits rather than exact numbers.

What is called EC50 is the concentration at which the effect is half-maximal. For `O=C(Nc1ccc(F)c(-n2cc3cc(N4CCCC4)cnc3n2)c1)N1CC(F)(F)C1` [Compound 161, 3,3-difluoro-N-{4-fluoro-3-[5-(pyrrolidin-1-yl)-2H-pyrazolo[3,4-b]pyridin-2-yl]phenyl}azetidine-1-carboxamide], the EC50 in experiment [1] (Trypanosoma brucei) is under 23 nM; in experiment [2] (setting [5]), 7.3 nM; in experiment [3] (Leishmania donovani), 7.7 nM; in experiment [4] (Trypanosoma cruzi, Fibroblast), 9.8 nM.

As for `O=C(Nc1ccc(F)c(-n2cc3cc(-c4ccccn4)cnc3n2)c1)C1=CCC1` [Compound 218, N-{4-fluoro-3-[5-(pyridin-2-yl)-2H-pyrazolo[3,4-b]pyridin-2-yl]phenyl}cyclobut-1-ene-1-carboxamide], the EC50 in experiment [1] (Trypanosoma brucei) came to 3 nM; in experiment [2] (setting [5]) it was 212 nM; in experiment [3] (Leishmania donovani) it was 4 nM; in experiment [4] (Trypanosoma cruzi, Fibroblast), 38 nM.

For the compound `O=C(Nc1ccc(F)c(-n2cc3cc(-c4cnccn4)cnc3n2)c1)N1CC(F)C1` [Compound 294, 3-fluoro-N-{4-fluoro-3-[5-(pyrazin-2-yl)-2H-pyrazolo[3,4-b]pyridin-2-yl]phenyl}azetidine-1-carboxamide], the concentration for a half-maximal effect (EC50) came out at 5 nM in experiment [1] (Trypanosoma brucei); 4 nM in experiment [2] (setting [5]); 4 nM in experiment [3] (Leishmania donovani); 5 nM in experiment [4] (Trypanosoma cruzi, Fibroblast).

In the case of `O=C(Nc1ccnc(-n2cc3cc(N4CC(F)(F)C4)cnc3n2)c1)N1CCC1` [Compound 280, N-(2-(5-(3,3-difluoroazetidin-1-yl)-2H-pyrazolo[3,4-b]pyridin-2-yl)pyridin-4-yl)azetidine-1-carboxamide], the 50% effective concentration (EC50) in experiment [1] (Trypanosoma brucei) was found to be 40 nM; in experiment [2] (setting [5]), 28 nM; in experiment [3] (Leishmania donovani) it was 33 nM; in experiment [4] (Trypanosoma cruzi, Fibroblast) it was 48 nM.

As to `CC(C)(C)Cc1cnc2nn(-c3cc(NC(=O)N4CC(F)C4)ccc3F)cc2c1` [Compound 21, N-{3-[5-(2,2-dimethylpropyl)-2H-pyrazolo[3,4-b]pyridin-2-yl]-4-fluorophenyl}-3-fluoroazetidine-1-carboxamide], the EC50 is under 23 nM in experiment [1] (Trypanosoma brucei); 6.5 nM in experiment [2] (setting [5]); 7.7 nM in experiment [3] (Leishmania donovani); 1.7 nM in experiment [4] (Trypanosoma cruzi, Fibroblast).

For the compound `O=C(Nc1ccc(F)c(-n2cc3cc(C4CCN(Cc5ccc(F)cc5)CC4)cnc3n2)c1)N1CC(F)C1` [Compound 305, 3-fluoro-N-[4-fluoro-3-(5-{1-[(4-fluorophenyl)methyl]piperidin-4-yl]-2H-pyrazolo[3,4-b]pyridin-2-yl)phenyl]azetidine-1-carboxamide], the EC50 in experiment [1] (Trypanosoma brucei) was found to be 5 nM; in experiment [2] (setting [5]), 3 nM; in experiment [3] (Leishmania donovani), 110 nM; in experiment [4] (Trypanosoma cruzi, Fibroblast) it was 1 nM.

Consider `CN(C)c1cnc2nn(-c3cc(NC(=O)c4ccco4)ccc3F)cc2c1` [Compound 140, N-{3-[5-(dimethylamino)-2H-pyrazolo[3,4-b]pyridin-2-yl]-4-fluorophenyl}furan-2-carboxamide], for which the concentration for a half-maximal effect (EC50) was under 23 nM in experiment [1] (Trypanosoma brucei); 41 nM in experiment [2] (setting [5]); 100 nM in experiment [3] (Leishmania donovani); 23 nM in experiment [4] (Trypanosoma cruzi, Fibroblast).

For the compound `CC(C)c1cnc2nn(-c3cc(NC(=O)C4CCCO4)ccc3F)cc2c1` (centres unmarked) [Compound 88, N-{4-fluoro-3-[5-(propan-2-yl)-2H-pyrazolo[3,4-b]pyridin-2-yl]phenyl}oxolane-2-carboxamide], the EC50 in experiment [1] (Trypanosoma brucei) worked out at 1500 nM; in experiment [2] (setting [5]) it was 3200 nM; in experiment [3] (Leishmania donovani) it was 5300 nM; in experiment [4] (Trypanosoma cruzi, Fibroblast) it was 1800 nM.

Turning to `CCCC(C)c1cnc2nn(-c3cc(NC(=O)N4CC(F)C4)ccc3F)cc2c1` (centres unmarked) [Compound 23, 3-fluoro-N-{4-fluoro-3-[5-(pentan-2-yl)-2H-pyrazolo[3,4-b]pyridin-2-yl]phenyl}azetidine-1-carboxamide], the 50% effective concentration (EC50) was under 23 nM in experiment [1] (Trypanosoma brucei); 110 nM in experiment [2] (setting [5]); 140 nM in experiment [3] (Leishmania donovani); 78 nM in experiment [4] (Trypanosoma cruzi, Fibroblast).

`Cc1cccnc1-c1cnc2nn(-c3cc(NC(=O)c4ccco4)ccc3F)cc2c1` [Compound 2, N-(4-fluoro-3-(5-(3-methylpyridin-2-yl)-2H-pyrazolo[3,4-b]pyridin-2-yl)phenyl)furan-2-carboxamide]: the 50% effective concentration (EC50) in experiment [1] (Trypanosoma brucei) is under 23 nM; in experiment [2] (setting [5]), 4.4 nM; in experiment [3] (Leishmania donovani) it was 3 nM; in experiment [4] (Trypanosoma cruzi, Fibroblast), 1 nM.

Take `O=C(Nc1ccc(F)c(-n2cc3cc(Cl)cnc3n2)c1)N1CC(F)C1` [Compound 276, N-(3-{5-chloro-2H-pyrazolo[3,4-b]pyridin-2-yl}-4-fluorophenyl)-3-fluoroazetidine-1-carboxamide]: the concentration giving a half-maximal response (EC50) in experiment [1] (Trypanosoma brucei) was found to be 33 nM; in experiment [2] (setting [5]), 100 nM; in experiment [3] (Leishmania donovani), 29 nM; in experiment [4] (Trypanosoma cruzi, Fibroblast), 21 nM.

`O=C(Nc1ccc(F)c(-n2cc3cc(-c4ccccn4)cnc3n2)c1)[C@H]1C[C@@H]1F` (single isomer, unassigned) [Compound 273, (1 S,2R)-2-fluoro-N-(4-fluoro-3-(5-(pyridin-2-yl)-2H-pyrazolo[3,4-b]pyridin-2-yl)phenyl)cyclopropane-1-carboxamide or (1R,2S)-2-fluoro-N-(4-fluoro-3-(5-(pyridin-2-yl)-2H-pyrazolo[3,4-b]pyridin-2-yl)phenyl)cyclopropane-1-carboxamide]: the EC50 came out at 45 nM in experiment [1], 6 nM in experiment [2], 27 nM in experiment [3] and 17 nM in experiment [4].

Turning to `CCC(C)c1cnc2nn(-c3cc(NC(=O)c4oc(C)nc4C)ccc3F)cc2c1` (centres unmarked) [Compound 105, N-{3-[5-(butan-2-yl)-2H-pyrazolo[3,4-b]pyridin-2-yl]-4-fluorophenyl}-2,4-dimethyl-1,3-oxazole-5-carboxamide], the concentration giving a half-maximal response (EC50) was 380 nM in experiment [1] (Trypanosoma brucei); 890 nM in experiment [2] (setting [5]); 720 nM in experiment [3] (Leishmania donovani); 430 nM in experiment [4] (Trypanosoma cruzi, Fibroblast).

As for `O=C(Nc1ccc(F)c(-n2cc3cc(CC4CCC4)cnc3n2)c1)N1CCC1` [Compound 97, N-{3-[5-(cyclobutylmethyl)-2H-pyrazolo[3,4-b]pyridin-2-yl]-4-fluorophenyl}azetidine-1-carboxamide], the EC50 was under 23 nM in experiment [1] (Trypanosoma brucei); 440 nM in experiment [2] (setting [5]); 12 nM in experiment [3] (Leishmania donovani); 8.8 nM in experiment [4] (Trypanosoma cruzi, Fibroblast).

For the compound `O=C(Nc1ccc(Cl)c(-n2cc3cc(-c4ccccn4)cnc3n2)c1)N1CCC1` [Compound 285, N-{4-chloro-3-[5-(pyridin-2-yl)-2H-pyrazolo[3,4-b]pyridin-2-yl]phenyl}azetidine-1-carboxamide], the EC50 in experiment [1] (Trypanosoma brucei) came to 4 nM; in experiment [2] (setting [5]) it was 9 nM; in experiment [3] (Leishmania donovani) it was 4 nM; in experiment [4] (Trypanosoma cruzi, Fibroblast), 3 nM.

In the case of `O=C(Nc1ccc(F)c(-n2cc3cc(N4CC5(COC5)C4)cnc3n2)c1)N1CC(F)C1` [Compound 171, 3-fluoro-N-[4-fluoro-3-(5-{2-oxa-6-azaspiro[3.3]heptan-6-yl}-2H-pyrazolo[3,4-b]pyridin-2-yl)phenyl}azetidine-1-carboxamide], the EC50 in experiment [1] (Trypanosoma brucei) is under 23 nM; in experiment [2] (setting [5]), 16 nM; in experiment [3] (Leishmania donovani), 9.5 nM; in experiment [4] (Trypanosoma cruzi, Fibroblast), 47 nM.

On to `O=C(Nc1ccc(F)c(-n2cc3cc(-c4ncccc4F)cnc3n2)c1)N1CC[C@@H](F)C1` [Compound 317, (3R)-3-fluoro-N-{4-fluoro-3-[5-(3-fluoropyridin-2-yl)-2H-pyrazolo[3,4-b]pyridin-2-yl]phenyl}pyrrolidine-1-carboxamide], for which the EC50 in experiment [1] (Trypanosoma brucei) was 5 nM; in experiment [2] (setting [5]), 2 nM; in experiment [3] (Leishmania donovani), 2 nM; in experiment [4] (Trypanosoma cruzi, Fibroblast) it was 1 nM.
